Experimental data: patent US9365522B2, “Pyrazole amide derivative” (AMGEN INC., priority 2015, dated 2016)

Biological target: T1, human RORγ-LBD (Homo sapiens, UniProt P51449)
T1 construct: made in house; host or cells: E. coli (BL-21)
T1 sequence (P51449 262-518): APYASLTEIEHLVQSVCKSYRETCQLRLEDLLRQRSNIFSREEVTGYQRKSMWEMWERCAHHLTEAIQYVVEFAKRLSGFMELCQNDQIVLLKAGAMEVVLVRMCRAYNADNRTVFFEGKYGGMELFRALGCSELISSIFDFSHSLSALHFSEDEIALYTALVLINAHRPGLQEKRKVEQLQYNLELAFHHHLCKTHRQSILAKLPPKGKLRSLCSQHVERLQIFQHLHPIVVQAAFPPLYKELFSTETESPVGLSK
Experiment: ROR gamma coactivator peptide recruitment Alphascreen assay (RORγ-LBD binding to GRIP1 coactivator peptide)
Assay type: biochemical
Conditions: 5 nM human RORγ-LBD, 30 nM 7-β-hydroxycholesterol, 50 nM biotinylated GRIP1 coactivator peptide, overnight incubation at room temperature; read-out: result (pIC50, RORγ coactivator peptide recruitment Alphascreen assay) (converted)
Method in brief: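 Alphascreen proximity read-out after overnight room-temperature incubation, yielding pIC50 from 1-in-2 compound series (2.5% DMSO final). Mixture: 50 nM biotin-GRIP1 peptide, 30 nM 7-β-hydroxycholesterol agonist, 5 nM recombinant 6×His:Flag human RORγ-LBD (aa 262-518), 50 mM HEPES pH 7.4.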

Structure (SMILES) | IC50 [nM]
CC1(C)[C@@H]2C[C@H](N(CC(=O)c3c(F)cccc3Cl)C(=O)c3cnn([C@H]4CC[C@](C)(C(=O)O)CC4)c3C(F)(F)F)C[C@@H]21 [Example 658, trans-4-(4-((2-(2-chloro-6-fluorophenyl)-2-oxoethyl)((1R,3r,5S)-6,6-dimethylbicyclo[3.1.0]hex-3-yl)carbamoyl)-5-(trifluoromethyl)-1H-pyrazol-1-yl)-1-methylcyclohexanecarboxylic acid] | 1.95
CC(C)(C)CN(CC(=O)c1c(Cl)cncc1Cl)C(=O)c1cnn([C@@H]2CCCC[C@H]2CC(=O)O)c1C(F)(F)F [Example 659, ((1S,2R)-2-(4-((2-(3,5-dichloro-4-pyridinyl)-2-oxoethyl)(2,2-dimethylpropyl)carbamoyl)-5-(trifluoromethyl)-1H-pyrazol-1-yl)cyclohexyl)acetic acid] | 331
C[C@@]1(CN(CC(=O)c2c(Cl)cncc2Cl)C(=O)c2cnn([C@H]3CC[C@](C)(C(=O)O)CC3)c2C(F)(F)F)CCCO1 [Example 660, trans-4-(4-((2-(3,5-dichloro-4-pyridinyl)-2-oxoethyl)(((2S)-2-methyltetrahydro-2-furanyl)methyl)carbamoyl)-5-(trifluoromethyl)-1H-pyrazol-1-yl)-1-methylcyclohexanecarboxylic acid] | 25.7
C[C@]1(CN(CC(=O)c2c(Cl)cncc2Cl)C(=O)c2cnn([C@H]3CC[C@](C)(C(=O)O)CC3)c2C(F)(F)F)CCCO1 [Example 661, trans-4-(4-((2-(3,5-dichloro-4-pyridinyl)-2-oxoethyl)(((2R)-2-methyltetrahydro-2-furanyl)methyl)carbamoyl)-5-(trifluoromethyl)-1H-pyrazol-1-yl)-1-methylcyclohexanecarboxylic acid] | 20.4
C[C@H]1C[C@H](n2ncc(C(=O)N(CC(=O)c3c(Cl)cccc3Cl)CC3CC(C)(C)C3)c2C(F)(F)F)CC[C@H]1C(=O)O [Example 662, (1R,2S,4R)-4-(4-((2-(2,6-dichlorophenyl)-2-oxoethyl)((3,3-dimethylcyclobutyl)methyl)carbamoyl)-5-(trifluoromethyl)-1H-pyrazol-1-yl)-2-methylcyclohexanecarboxylic acid] | 7.08
C[C@@H]1C[C@@H](n2ncc(C(=O)N(CC(=O)c3c(Cl)cccc3Cl)CC3CC(C)(C)C3)c2C(F)(F)F)CC[C@@H]1C(=O)O [Example 663, (1S,2R,4S)-4-(4-((2-(2,6-dichlorophenyl)-2-oxoethyl)((3,3-dimethylcyclobutyl)methyl)carbamoyl)-5-(trifluoromethyl)-1H-pyrazol-1-yl)-2-methylcyclohexanecarboxylic acid] | 1.95
C[C@]1(C(=O)O)CC[C@H](n2ncc(C(=O)N(CC(=O)c3c(Cl)cc(F)cc3Cl)CC3CCCCC3)c2C(F)(F)F)CC1 [Example 664, trans-4-(4-((cyclohexylmethyl)(2-(2,6-dichloro-4-fluorophenyl)-2-oxoethyl)carbamoyl)-5-(trifluoromethyl)-1H-pyrazol-1-yl)-1-methylcyclohexanecarboxylic acid] | 1.45
Cc1cc(Cl)c(C(=O)CN(CC2(F)CCCCC2)C(=O)c2cnn([C@H]3CC[C@](C)(C(=O)O)CC3)c2C(F)(F)F)c(Cl)c1 [Example 665, trans-4-(4-((2-(2,6-dichloro-4-methylphenyl)-2-oxoethyl)((1-fluorocyclohexyl)methyl)carbamoyl)-5-(trifluoromethyl)-1H-pyrazol-1-yl)-1-methylcyclohexanecarboxylic acid] | 1.38
C[C@]1(C(=O)O)CC[C@H](n2ncc(C(=O)N(CC(=O)c3c(Cl)cncc3Cl)CC3(F)CCCCC3)c2C(F)(F)F)CC1 [Example 666, trans-4-(4-((2-(3,5-dichloro-4-pyridinyl)-2-oxoethyl)((1-fluorocyclohexyl)methyl)carbamoyl)-5-(trifluoromethyl)-1H-pyrazol-1-yl)-1-methylcyclohexanecarboxylic acid] | 4.57
O=C(CN(CC1(F)CCCC1)C(=O)c1cnn([C@H]2CC[C@@H](C(=O)O)CC2)c1C(F)(F)F)c1c(Cl)cncc1Cl [Example 667, cis-4-(4-((2-(3,5-dichloro-4-pyridinyl)-2-oxoethyl)((1-fluorocyclopentyl)methyl)carbamoyl)-5-(trifluoromethyl)-1H-pyrazol-1-yl)cyclohexanecarboxylic acid] | 302
CC1(C)CC(CN(CC(=O)c2c(Cl)cccc2Cl)C(=O)c2cnn([C@H]3C[C@H](CC(=O)O)C3)c2C(F)(F)F)C1 [Example 668, (trans-3-(4-((2-(2,6-dichlorophenyl)-2-oxoethyl)((3,3-dimethylcyclobutyl)methyl)carbamoyl) 5-(trifluoromethyl)-1H-pyrazol-1-yl)cyclobutyl)acetic acid] | 3.47
CC1(C)CC(CN(CC(=O)c2c(Cl)cccc2Cl)C(=O)c2cnn([C@H]3C[C@@H](CC(=O)O)C3)c2C(F)(F)F)C1 [Example 669, (cis-3-(4-((2-(2,6-dichlorophenyl)-2-oxoethyl)((3,3-dimethylcyclobutyl)methyl)carbamoyl) 5-(trifluoromethyl)-1H-pyrazol-1-yl)cyclobutyl)acetic acid] | 4.07
CC(C)(C)CN(CC(=O)c1c(Cl)cccc1Cl)C(=O)c1cnn([C@H]2CC[C@@H](C(=O)O)CC2)c1C(F)(F)F [Example 670, cis-4-(4-((2-(2,6-dichlorophenyl)-2-oxoethyl)(2,2-dimethylpropyl)carbamoyl)-5-(trifluoromethyl)-1H-pyrazol-1-yl)cyclohexanecarboxylic acid] | 21.9
CC1(CN(CC(=O)c2c(Cl)cc(F)cc2Cl)C(=O)c2cnn([C@H]3CC[C@](C)(C(=O)O)CC3)c2C(F)(F)F)CCCC1 [Example 671, trans-4-(4-((2-(2,6-dichloro-4-fluorophenyl)-2-oxoethyl)((1-methylcyclopentyl)methyl)carbamoyl)-5-(trifluoromethyl)-1H-pyrazol-1-yl)-1-methylcyclohexanecarboxylic acid] | 0.871
CC1(C)CC(CN(CC(=O)c2c(Cl)cccc2Cl)C(=O)c2cnn([C@H]3CC[C@@](C)(C(=O)O)CC3)c2C(F)(F)F)C1 [Example 672, trans-4-(4-((2-(2,6-dichlorophenyl)-2-oxoethyl)((3,3-dimethylcyclobutyl)methyl)carbamoyl)-5-(trifluoromethyl)-1H-pyrazol-1-yl)-1-methylcyclohexanecarboxylic acid] | 2.04
CC1(C)CC[C@@H](CN(CC(=O)c2c(Cl)cncc2Cl)C(=O)c2cnn([C@H]3CC[C@](C)(C(=O)O)CC3)c2C(F)(F)F)O1 [Example 673, trans-4-(4-((2-(3,5-dichloro-4-pyridinyl)-2-oxoethyl)(((2S)-5,5-dimethyltetrahydro-2-furanyl)methyl)carbamoyl)-5-(trifluoromethyl)-1H-pyrazol-1-yl)-1-methylcyclohexanecarboxylic acid] | 36.3
CC1(C)CC[C@H](CN(CC(=O)c2c(Cl)cncc2Cl)C(=O)c2cnn([C@H]3CC[C@](C)(C(=O)O)CC3)c2C(F)(F)F)O1 [Example 674, trans-4-(4-((2-(3,5-dichloro-4-pyridinyl)-2-oxoethyl)(((2S)-5,5-dimethyltetrahydro-2-furanyl)methyl)carbamoyl)-5-(trifluoromethyl)-1H-pyrazol-1-yl)-1-methylcyclohexanecarboxylic acid] | 17.8
CC1(CN(CC(=O)c2c(Cl)cncc2Cl)C(=O)c2cnn([C@H]3CC[C@](C)(C(=O)O)CC3)c2C(F)(F)F)COC1 [Example 675, trans-4-(4-((2-(3,5-dichloro-4-pyridinyl)-2-oxoethyl)((3-methyl-3-oxetanyl)methyl)carbamoyl)-5-(trifluoromethyl)-1H-pyrazol-1-yl)-1-methylcyclohexanecarboxylic acid] | 234
Cc1cc(Cl)c(C(=O)CN(CC2(C)COC2)C(=O)c2cnn([C@H]3CC[C@](C)(C(=O)O)CC3)c2C(F)(F)F)c(Cl)c1 [Example 676, trans-4-(4-((2-(2,6-dichloro-4-methylphenyl)-2-oxoethyl)((3-methyl-3-oxetanyl)methyl)carbamoyl)-5-(trifluoromethyl)-1H-pyrazol-1-yl)-1-methylcyclohexanecarboxylic acid] | 51.3
C[C@]1(C(=O)O)CC[C@H](n2ncc(C(=O)N(CC(=O)c3c(Cl)cncc3Cl)[C@H]3C[C@@H]4CC[C@H]3C4)c2C(F)(F)F)CC1 [Example 677, trans-4-(4-((1S,2R,4R)-bicyclo[2.2.1]hept-2-yl(2-(3,5-dichloro-4-pyridinyl)-2-oxoethyl)carbamoyl)-5-(trifluoromethyl)-1H-pyrazol-1-yl)-1-methylcyclohexanecarboxylic acid] | 5.62
Cc1cc(Cl)c(C(=O)CN(C(=O)c2cnn([C@H]3CC[C@](C)(C(=O)O)CC3)c2C(F)(F)F)[C@H]2C[C@@H]3CC[C@H]2C3)c(Cl)c1 [Example 678, trans-4-(4-((1S,2S,4R)-bicyclo[2.2.1]hept-2-yl(2-(2,6-dichloro-4-methylphenyl)-2-oxoethyl)carbamoyl)-5-(trifluoromethyl)-1H-pyrazol-1-yl)-1-methylcyclohexanecarboxylic acid] | 1.07
CC1(C)CC[C@H](CN(CCc2c(Cl)cncc2Cl)C(=O)c2cnn([C@H]3CC[C@](C)(C(=O)O)CC3)c2C(F)(F)F)O1 [Example 679, trans-4-(4-((2-(3,5-dichloro-4-pyridinyl)ethyl)(((2R)-5,5-dimethyltetrahydro-2-furanyl)methyl)carbamoyl)-5-(trifluoromethyl)-1H-pyrazol-1-yl)-1-methylcyclohexanecarboxylic acid] | 12
